# Assay results: ChEMBL document CHEMBL4177696, “Identification of a diverse synthetic abietane diterpenoid library and insight into the structure-activity relationships for antibacterial activity” (Bioorg Med Chem Lett, 2017)
# Columns and labels:
# Staphylococcus aureus = test: Antibacterial activity against Staphylococcus aureus measured after 24 hrs; type: functional
# Bacillus subtilis = test: Antibacterial activity against Bacillus subtilis measured after 24 hrs; type: functional
# Escherichia coli = test: Antibacterial activity against Escherichia coli measured after 24 hrs; type: functional
# Pseudomonas fluorescens = test: Antibacterial activity against Pseudomonas fluorescens measured after 24 hrs; type: functional
# [1] = Cytotoxicity against HFF measured after 72 hrs by MTT assay; type: cell-based; settings: human, HFF cells
# [2] = Cytotoxicity against human HL-7702 cells measured after 72 hrs by MTT assay; type: cell-based; settings: HL-7702 (L02) cells
SMILES,MIC (Staphylococcus aureus) [µg/mL],MIC (Bacillus subtilis) [µg/mL],MIC (Escherichia coli) [µg/mL],MIC (Pseudomonas fluorescens) [µg/mL],CC50 at 72 h [1] [µg/mL],CC50 at 72 h [2] [µg/mL]
COC(=O)[C@]1(C)CCC[C@]2(C)c3ccc(C(C)C)c(NC(=O)Cn4cc(-c5cccc(NC(C)=O)c5)nn4)c3CC[C@@H]12,6.3,6.3,3.1,6.3,12.2,9.7
COc1cccc2c1CC[C@H]1[C@H]3COC(=O)C3=CC[C@]21C,6.3,6.3,3.1,6.3,25.2,9.9
COC(=O)[C@]1(C)CCC[C@]2(C)c3ccc(C(C)C)c(NC(=O)Cn4cc(-c5cccnc5)nn4)c3CC[C@@H]12,3.1,12.5,3.1,6.3,48.2,47.9
C=C1C(=O)CC[C@]2(C)c3cccc(OC)c3CC[C@@H]12,3.1,6.3,6.3,3.1,9.1,9.3
C[C@]12CCC3=C(COC3=O)[C@@H]1CCc1ccccc12,100,75,100,75,–,–
"COc1c(C(C)C)ccc2c1[C@H](O)C=C1C3=C(CCC12C)C(=O)OC3 (single isomer, unassigned)",3.1,6.3,3.1,3.1,9.2,10.3
C=C1CCC[C@]2(C)c3ccc(C(C)C)c(OC)c3CC[C@@H]12,100,75,100,100,–,–
COc1c(C(C)C)ccc2c1CC[C@H]1C(=O)CCC[C@]21CO[N+](=O)[O-],50,25,50,75,–,–
COc1c(C(C)C)ccc2c1CC[C@@]1(O)C3=C(CC[C@]21C)C(=O)OC3,100,100,100,100,–,–
COC(=O)[C@]1(C)CCC[C@]2(C)c3ccc(C(C)C)c(NC(=O)Cn4cc(-c5ccc(Br)cc5)nn4)c3CC[C@@H]12,25,12.5,25,6.3,–,–
COC(=O)[C@]1(C)CCC[C@]2(C)c3ccc(C(C)C)c(NC(=O)Cn4cc(-c5cccc(NC(=O)OC(C)(C)C)c5)nn4)c3CC[C@@H]12,6.3,12.5,12.5,25,–,–
COC(=O)[C@]1(C)CCC[C@]2(C)c3ccc(C(C)C)c(NC(=O)Cn4cc(CBr)nn4)c3CC[C@@H]12,50,50,75,25,–,–
CCOCO[C@]12CCC[C@]3(CO1)c1ccc(C(C)C)c(OC)c1CC[C@@H]23,3.1,6.3,3.1,3.1,8.2,5.4
COC(=O)[C@]1(C)CCC[C@]2(C)c3ccc(C(C)C)c(NC(=O)Cn4cc(-c5nc(Cl)nc(Cl)n5)nn4)c3CC[C@@H]12,12.5,25,6.3,12.5,–,–
COC(=O)[C@]1(C)CCC[C@]2(C)c3ccc(C(C)C)c(NC(=O)Cn4cc(-c5ccc(OC)cc5)nn4)c3CC[C@@H]12,6.3,50,12.5,25,–,–
COC(=O)[C@]1(C)CCC[C@]2(C)c3ccc(C(C)C)c(NC(=O)Cn4cc(-c5ccc(OCc6ccccc6)cc5)nn4)c3CC[C@@H]12,50,50,75,75,–,–
COC(=O)[C@]1(C)CCC[C@]2(C)c3ccc(C(C)C)c(NC(=O)Cn4cc(-c5cccc([N+](=O)[O-])c5)nn4)c3CC[C@@H]12,25,50,75,50,–,–
COc1c(C(C)C)ccc2c1CC[C@H]1C(=O)C(=C(SC)SC)CC[C@]21CO,25,12.5,3.1,6.3,–,–
COC(=O)[C@]1(C)CCC[C@]2(C)c3ccc(C(C)C)c(NC(=O)Cn4cc(Cc5ccccc5)nn4)c3CC[C@@H]12,50,50,75,50,–,–
COC(=O)[C@]1(C)CCC[C@]2(C)c3ccc(C(C)C)c(NC(=O)Cn4cc([Si](C)(C)C)nn4)c3CC[C@@H]12,75,100,75,100,–,–
